Source: ChEMBL document CHEMBL4229434, “Design, synthesis, and evaluation of novel l-phenylglycine derivatives as potential PPARγ lead compounds” (Bioorg Med Chem, 2018)
pEC50: −log10 of the molar value. Several values for one entry are separate records, joined by “and”; a condition that tells them apart may be missing. Equal entries are not always repeated.

Key:
[1] = target: T1, Peroxisome proliferator-activated receptor gamma (Homo sapiens) (UniProt P37231); test: Agonist activity at PPARgamma in human HepG2 cells assessed as activation of PPRE at 10 ug/ml incubated for 24 hrs by dual luciferase reporter gene assay relative to control; type: cell-based
T1 sequence (whole entry): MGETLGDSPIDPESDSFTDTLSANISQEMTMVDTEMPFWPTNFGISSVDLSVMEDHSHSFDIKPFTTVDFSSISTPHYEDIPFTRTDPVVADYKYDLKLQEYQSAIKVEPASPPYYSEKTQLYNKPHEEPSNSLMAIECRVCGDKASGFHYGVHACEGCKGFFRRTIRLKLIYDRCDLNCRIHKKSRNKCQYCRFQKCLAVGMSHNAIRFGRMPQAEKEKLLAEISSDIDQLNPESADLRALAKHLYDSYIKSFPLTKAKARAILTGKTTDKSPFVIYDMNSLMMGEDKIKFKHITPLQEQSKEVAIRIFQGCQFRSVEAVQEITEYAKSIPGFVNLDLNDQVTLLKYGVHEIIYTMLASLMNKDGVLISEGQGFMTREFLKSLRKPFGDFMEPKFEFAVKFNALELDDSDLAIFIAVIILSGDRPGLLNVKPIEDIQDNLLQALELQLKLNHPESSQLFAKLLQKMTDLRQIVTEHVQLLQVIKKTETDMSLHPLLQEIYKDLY

[2] = target: T1, Peroxisome proliferator-activated receptor gamma (Homo sapiens); test: Agonist activity at PPARgamma in human HepG2 cells assessed as activation of PPRE at 10 ug/ml incubated for 24 hrs by dual luciferase reporter gene assay relative to pioglitazone; type: cell-based
Rattus norvegicus [3] = organism: Rattus norvegicus; test: Inhibition of rat small intestine alpha-glucosidase at 10 ug/ml using maltose/glucose as substrate incubated for 10 mins followed by substrate addition measured after 10 mins relative to control
[4] = target: Dipeptidyl peptidase 4 (Homo sapiens) (UniProt P27487); test: Inhibition of recombinant human C-terminal His-tagged DPP-4 (29 to 766 residues) expressed in Sf9 insect cells at 10 ug/ml using dipeptidyl peptidase […] as substrate incubated for 10 mins followed by substrate addition measured after 40 mins by fluorescence assay relative to control
[5] = target: T2, Peroxisome proliferator-activated receptor gamma (Homo sapiens, UniProt P37231); test: Agonist activity at PPARgamma in human HepG2 cells assessed as activation of PPRE incubated for 24 hrs by dual luciferase reporter gene assay; type: cell-based
T2 sequence (P37231 whole entry): T1 sequence (whole entry)

[6] = target: T1, Peroxisome proliferator-activated receptor gamma (Homo sapiens); test: Agonist activity at PPARgamma in human HepG2 cells assessed as activation of PPRE at 23.05 umol/L incubated for 24 hrs by dual luciferase reporter gene assay relative to control; type: cell-based
Rattus norvegicus [7] = organism: Rattus norvegicus; test: Inhibition of rat small intestine alpha-glucosidase at 3.74 umol/L using maltose/glucose as substrate incubated for 10 mins followed by substrate addition measured after 10 mins relative to control

Chain of Dipeptidyl peptidase 4 (Homo sapiens) (P27487 whole entry, looked up, the tested form may be a part): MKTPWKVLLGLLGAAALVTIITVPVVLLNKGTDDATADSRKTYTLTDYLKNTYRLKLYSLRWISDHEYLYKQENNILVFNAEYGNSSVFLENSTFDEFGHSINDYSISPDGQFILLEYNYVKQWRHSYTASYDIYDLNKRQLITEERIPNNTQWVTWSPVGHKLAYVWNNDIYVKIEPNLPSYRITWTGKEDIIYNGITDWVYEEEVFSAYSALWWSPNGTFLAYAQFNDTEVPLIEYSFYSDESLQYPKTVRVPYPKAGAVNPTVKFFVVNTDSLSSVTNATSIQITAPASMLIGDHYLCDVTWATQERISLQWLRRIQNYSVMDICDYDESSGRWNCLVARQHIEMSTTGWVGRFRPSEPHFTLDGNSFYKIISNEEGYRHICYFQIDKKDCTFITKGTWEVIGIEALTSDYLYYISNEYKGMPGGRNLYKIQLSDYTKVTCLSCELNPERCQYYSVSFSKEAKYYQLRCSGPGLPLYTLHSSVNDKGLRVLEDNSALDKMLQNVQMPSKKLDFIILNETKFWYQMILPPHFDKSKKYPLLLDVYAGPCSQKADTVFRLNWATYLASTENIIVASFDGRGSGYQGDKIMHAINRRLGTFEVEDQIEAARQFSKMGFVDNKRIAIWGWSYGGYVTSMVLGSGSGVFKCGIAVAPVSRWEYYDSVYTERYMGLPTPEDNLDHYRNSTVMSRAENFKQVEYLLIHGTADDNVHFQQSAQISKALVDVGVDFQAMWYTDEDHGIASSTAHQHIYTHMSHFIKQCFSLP

SMILES | Activity [1] | Activity [2] | inhibition (Rattus norvegicus [3]) | inhibition [4] | pEC50 [5] | Activity [6] | inhibition (Rattus norvegicus [7])
COC(=O)[C@@H](NC(=O)OCc1ccccc1)c1cccc(NC(=O)Cn2cnc3ccccc32)c1 | 3.93% | 4.52% | 2.91% | -0.31% | – | – | –
O=C(CCl)Nc1cccc([C@H](NC(=O)OCc2ccccc2)C(=O)NO)c1 | -5.33% | -4.96% | – | – | – | – | –
COCC(=O)Nc1cccc([C@H](NC(=O)OCc2ccccc2)C(=O)OC)c1 | -17.1% | -16.1% | – | – | – | – | –
Cc1cc(NS(=O)(=O)c2ccc(NCC(=O)Nc3cccc([C@H](NC(=O)OCc4ccccc4)C(=O)O)c3)cc2)no1 | 40.6% | 58.8% | 8.89% | 11.1% | – | – | –
COC(=O)[C@@H](NC(=O)OCc1ccccc1)c1cccc(NC(=O)Cn2cnnn2)c1 | 14.4% | 14.9% | – | – | – | – | –
CCCC(=O)Nc1cccc([C@H](NC(=O)OCc2ccccc2)C(=O)OC)c1 | 12% | 11.2% | – | – | – | – | –
O=C(CCl)Nc1cccc([C@H](NC(=O)OCc2ccccc2)C(=O)O)c1 | 53.5% | 52.8% and 49.1% | 17.7% | – | – | – | –
COC(=O)[C@@H](NC(=O)OCc1ccccc1)c1cccc(NC(=O)CN2C(=O)c3ccccc3C2=O)c1 | 11.9% | 14.6% | 17.5% | 2.17% | – | – | –
COC(=O)[C@@H](NC(=O)OCc1ccccc1)c1cccc(NC(=O)CNc2ccc(S(=O)(=O)Nc3cc(C)on3)cc2)c1 | 18.9% | 27.9% | 11.8% | 5.87% | – | – | –
O=C(Cn1cnc2ccccc21)Nc1cccc([C@H](NC(=O)OCc2ccccc2)C(=O)O)c1 | 3.85% | 4.3% | 0.99% | -0.74% | – | – | –
CCOC(=O)[C@@H](NC(=O)OCc1ccccc1)c1cccc(NC(=O)CCl)c1 | -24.8% | -23.9% | – | – | – | – | –
COC(=O)[C@@H](NC(=O)OCc1ccccc1)c1cccc(NC(=O)CCCl)c1 | -3.55% | -3.5% | – | – | – | – | –
COC(=O)[C@@H](NC(=O)OCc1ccccc1)c1cccc(NC(=O)CCCCl)c1 | 11.6% | 11.8% | – | – | – | – | –
CNC(=O)[C@@H](NC(=O)OCc1ccccc1)c1cccc(NC(=O)CCl)c1 | -18.8% | -17.4% | – | – | – | – | –
CCNC(=O)[C@@H](NC(=O)OCc1ccccc1)c1cccc(NC(=O)CCl)c1 | -20.1% | -19.3% | – | – | – | – | –
CCCCOC(=O)[C@@H](NC(=O)OCc1ccccc1)c1cccc(NC(=O)CCl)c1 | -5.01% | -5.58% | – | – | – | – | –
COC(=O)[C@@H](NC(=O)OCc1ccccc1)c1cccc(NC(=O)Cn2nnnc2SC)c1 | 19.5% | 22.4% | – | – | – | – | –
COC(=O)[C@@H](NC(=O)OCc1ccccc1)c1cccc(NC(=O)CCl)c1 | 105 to 179% | 100% | 14.6% | 16.1% | 4.65 | – | –
COC(=O)[C@@H](NC(=O)OCc1ccccc1)c1cccc(NC(=O)Cn2nnnc2C)c1 | 14.4% | 15.4% | – | – | – | – | –
COC(=O)[C@@H](NC(=O)OCc1ccccc1)c1cccc(NC(C)=O)c1 | 24.9% | 21.6% | – | – | – | – | –
COC(=O)[C@@H](NC(=O)OCc1ccccc1)c1cccc(NC(=O)CSc2nc3ccccc3[nH]2)c1 | 7.66% | -9.41% | 9.26% | 8.99% | – | – | –
O=C(CN1C(=O)c2ccccc2C1=O)Nc1cccc([C@H](NC(=O)OCc2ccccc2)C(=O)O)c1 | 39.9% | 47.4% | 17.8% | – | – | – | –
COC(=O)[C@@H](NC(=O)OCc1ccccc1)c1cccc(NC(=O)Cn2nc(C)cc2C)c1 | 1.36% | 1.49% | – | – | – | – | –
CCCOC(=O)[C@@H](NC(=O)OCc1ccccc1)c1cccc(NC(=O)CCl)c1 | -17.1% | -17.1% | – | – | – | – | –
O=C(CSc1nc2ccccc2[nH]1)Nc1cccc([C@H](NC(=O)OCc2ccccc2)C(=O)O)c1 | 32.9% | 39.4% | 12.6% | -7.54% | – | – | –
CN(CCO)C(=O)[C@@H](NC(=O)OCc1ccccc1)c1cccc(NC(=O)CCl)c1 | 120% | 124% | – | – | 5.05 | 208% | –
CCC(=O)Nc1cccc([C@H](NC(=O)OCc2ccccc2)C(=O)OC)c1 | 18.3% | 16.5% | – | – | – | – | –
COC(=O)[C@@H](NC(=O)OCc1ccccc1)c1cccc(NC(=O)CN2CCN(C(=O)OC(C)(C)C)CC2)c1 | -8.27% | -10.9% | 15.5% | -6.12% | – | – | –
OCC(CO)N[C@H]1C[C@](O)(CO)[C@@H](O)[C@H](O)[C@H]1O | – | – | – | – | – | – | 104%
CC(C)(C)OC(=O)N1CCN(CC(=O)Nc2cccc([C@H](NC(=O)OCc3ccccc3)C(=O)O)c2)CC1 | 21.4% | 27.5% | 13.7% | 5.26% | – | – | –
